According to patent publication US10167326B2, “Alpha-fetoprotein “ring and tail” peptides” (ALBANY MEDICAL COLLEGE, priority 2010, dated 2019):
Non-standard residues stand in square brackets, D forms with d. Residues, ends and D or L forms follow the SMILES beside them. Groups on a side chain read outwards from the residue. No end group written: not given here. Hyp = O=C(O)[C@@H]1C[C@@H](O)CN1

Assays:
[1] = test system: Estrogen independent (ER−) MDA MB231 cells; assay: MDA MB231 cell growth (MTT assay); assay type: cell-based, human; conditions: 10^−6M, 7 days, MTT (FIG. 9)
Protocol: Estrogen independent (ER^−)MDA MB231 cells were plated at 20,000 cells/well/ml in a collagen-IV coated 24-well plate. The next day, cells were treated with vehicle (0.1% ethanol), AFPep, cyclo[EKTOVNOGN] (SEQ ID NO: 33) YI, for 7 days. Each peptide was treated at 10^−6M. Cell proliferation was determined by MTT assay. Each value is the mean±S.E. (n=4) of three independent experiments.

[2] = test system: T47D human breast cancer cells; assay: T47D cell proliferation assay in the presence of E2; assay type: cell-based; conditions: peptide 1 μM; E2-stimulated; mean±S.E (n=6); * p<0.05 vs E2 alone
Protocol: Anticancer activity of the cyclic peptides was also evaluated using the T47D cell proliferation assay. T47D cells were cultured on collagen-IV coated 24-well plates and treated with each of above peptides in the presence of E2. Final peptide concentrations of each peptide were 10^−6 M and final E2 concentration was 1 nM. Values are reported as mean±SEM (n=6) of four independent experiments. […] One-way ANOVA followed by Tukey's multiple comparison test. p≤0.05.
(§1) A ‘tail’ was attached to a nine-amino acid ring and included 1 or 2 amino acids defined as hydrophilic or hydrophobic based on the nature of their side-chains. Tails comprising the following amino acid(s): serine (S), tyrosine (Y), […], glutamic acid (E), phenylalanine-serine (FS) and tyrosine-isoleucine (YI) represent hydrophilic tails and tails comprising the following amino acid(s), phenylalanine (F), isoleucine (I) and phenylalanine-isoleucine (FI) are hydrophobic tails. All peptides were administered at a dose of 1 μg/mouse intraperitoneally or 10 μg/mouse by oral gavage. Values are presented as mean±S.E. (n=5). In culture, T47D cells were treated with each peptide at a concentration of 1 μM. Values are presented as mean±S.E (n=6). […] Wilcoxon Rank Sum Test.
(§2) All peptides were administered at a dose of 1 μg/mouse intraperitoneally or 10 μg/mouse by oral gavage. Values are presented as mean±S.E (n=5). In culture, T47D cells were treated with each peptide at a concentration of 1 μM. Values are presented as mean±S.E (n=6). […] Wilcoxon Rank Sum Test.

[3] = test system: MCF-7 human breast cancer xenograft; assay: E2-supplemented MCF-7 human breast cancer xenograft assay in SCID mice; assay type: in vivo, mouse; conditions: E2 pellets, 10 μg s.c., 10 μg i.p. or 100 μg p.o. once daily day 1 to day 20 (FIG. 8)
Excerpt: To determine the effectiveness of cyclo[EKTOVNOGN] (SEQ ID NO: 33)FI as a potential cancer therapeutic agent in a clinically relevant model, we assessed the effect of cyclo[EKTOVNOGN] (SEQ ID NO: 33)FI on E2-supplemented MCF-7 human breast cancer xenograft growth using different routes of administration. Briefly, a piece of MCF-7 human breast cancer measuring approximately 2 mm in average diameter was implanted under the kidney capsule of SCID mice. Mice were supplemented with E2 pellets implanted subcutaneously, at the time of tumor implantation, for a steady state of E2 at 10^−9M. Mice were treated with 10 μg subcutaneously (s.c.), 10 μg intraperitoneally (i.p.) or 100 μg orally (p.o.) cyclo [EKTOVNOGN] (SEQ ID NO: 33) FI was administered once daily from day 1 to day 20 of the experiment. Tumor size was measured as described in materials and methods. Data is presented as mean±S.E (n=5). After 20 days of treatment, the percentage change in tumor volume for each cyclo [EKTOVNOGN] […] One-way ANOVA followed by Tukey's multiple comparison test. *p<0.01 vs. E2.
The peptides of the invention were evaluated for their ability to inhibit tumor growth in a human tumor xenograft assay. Briefly, MCF-7 human breast cancer cells were obtained from ATCC® (Rockville, Md.) and were grown in DMEM supplemented with 5% FCS, 1% non-essential amino acids, 10 ng/ml insulin, 2 mM L-glutamine, 100 units/ml penicillin, and 100 μg/ml streptomycin. MCF-7 cells from culture were solidified into a fibrin clot. The tumor-containing clots were cut into pieces about 1.5 mm in diameter and implanted under the kidney capsule of severe combined immunodeficient (ICR-SCID) mice (Taconic Farms, Germantown, N.Y.) as described in Bennett et al. (Clin. Cancer Res. 1998; 4:2877-84).
Estrogen supplementation of mice was required for the growth of MCF-7 tumors. […] Tumor size was evaluated during survival laparotomy using a dissecting microscope at the time of tumor implantation and at days 15 and 30 after tumor implantation. […]

[4] = test system: T47D human breast cancer cells; assay: T47D cell proliferation assay in the presence of E2; assay type: cell-based; conditions: different concentrations in vitro (FIG. 7)
[5] = test system: E2-stimulated immature mouse uterine growth; assay: immature mouse uterine growth assay (inhibition of E2-stimulated uterine growth); assay type: in vivo; conditions: for inhibition of E2-stimulated uterine growth, dose response profile: over a number of doses (FIG. 6); for Inhibition ± S.E, % Mouse uterine growth Intraperitoneal: 1 μg/mouse intraperitoneally, E2-stimulated, mean±S.E. (n=5), * p<0.05 vs E2 alone
Protocol: Four cyclic peptides of decreasing ring size (Table 1) were synthesized and were assessed for antiestrogenic activity using the immature mouse uterine assay. Negative control mice received saline alone. Positive control mice received E2 alone. AFPep was used as a positive control peptide and cyclic Scr was used as a peptide control. Mice were injected intraperitoneally (i.p.) with each of these peptides at a dose of 1 μg/mouse. One hour later mice received 0.5 ug 17β-estradiol (E2) i.p. Twenty-two hours later uteri were dissected, weighed, and normalized to body weight. The results are reported as mean±S.E (n=5) for four independent experiments.
as §1, §2
To evaluate peptide-induced inhibition by the peptide of the present invention of estrogen-stimulated proliferation of normal tissue, the immature mouse uterine growth assay was utilized. Briefly, 13-15 day-old Swiss/Webster female mice, 6-8 g in body weight, were distributed into treatment groups of 5 mice per group so that each group contained animals of the same range of body weight. The peptide of the invention was injected i.p., s.c., or p.o. into the mice. One hour later, estradiol (E2) or vehicle control for E2 was injected i.p. Twenty-two hours after the second injection, uteri were harvested, trimmed free of mesenteries, and immediately weighed. The uterine weights were normalized to mouse body weights to compensate for differences in body weight among litters of the same age. Experiments employed a minimum of five mice per group and the mean normalized uterine weight±SE for each group was calculated. Percent growth inhibition in a test group was calculated from normalized uterine wet weights as described below.
The ability to inhibit E2-stimulated growth of normal mouse uterus was used as a screening assay for biological activity of AFPep analogs. In general, inhibitory activity ≥20% is considered to be biologically significant. Each analog's inhibitory effect on E2-stimulated growth was compared to AFPep (a positive control) and to PGVGQ (SEQ ID NO: 51)(a negative control). PGVGQ (SEQ ID NO: 51 amino acids 478-482 of AFP) is a portion of the primary structure of AFP near to the anti-cancer active site of AFP and is comprised of amino acids (P, V, and G) that are important components of AFPep.

CC[C@H](C)[C@H](NC(=O)[C@H](Cc1ccccc1)NC(=O)C[C@@H]1NC(=O)CNC(=O)[C@@H]2C[C@@H](O)CN2C(=O)[C@H](CC(N)=O)NC(=O)[C@H](C(C)C)NC(=O)[C@@H]2C[C@@H](O)CN2C(=O)[C@H]([C@@H](C)O)NC(=O)[C@H](CCCCN)NC(=O)[C@H](CCC(=O)O)NC1=O)C(N)=O [cyclo[EKTOVNOGN]FI] (cyclo(EKT[Hyp]VN[Hyp]GD([Phe-Ile-NH2])))
effect on growth of ER− MDA MB 231 cells in culture [1]: no effect | Inhibition ± S.E, % T47D cell proliferation [2]: 66 ± 2* % | inhibition of MCF-7 xenograft growth (change in tumor volume) [3]: significantly different from the E2 alone group | inhibition of MCF-7 xenograft growth (change in tumor volume) ([3]; listed as cyclo [ETKOVNOGN] FI): significantly inhibited the growth of tumor xenografts | inhibition of E2-stimulated T47D human breast cancer cell growth, concentration response profile [4]: inhibited E2-stimulated T47D human breast cancer cell growth in a concentration-dependent manner, even at high concentrations | efficacy in inhibition of E2-stimulated growth compared with AFPep ([5]; in vivo and in vitro, summary statements): more effective at inhibiting E2-stimulated growth than AFPep | inhibition of E2-stimulated uterine growth, dose response profile [5]: significantly inhibited E2-stimulated growth in a dose-dependent manner and maintained its effectiveness at very high doses

CC[C@H](C)[C@H](NC(=O)C[C@@H]1NC(=O)CNC(=O)[C@@H]2C[C@@H](O)CN2C(=O)[C@H](CC(N)=O)NC(=O)[C@H](C(C)C)NC(=O)[C@@H]2C[C@@H](O)CN2C(=O)[C@H]([C@@H](C)O)NC(=O)[C@H](CCCCN)NC(=O)[C@H](CCC(=O)O)NC1=O)C(N)=O [cyclo[EKTOVNOGN]I] (cyclo(EKT[Hyp]VN[Hyp]GD([Ile-NH2])))
Inhibition ± S.E, % T47D cell proliferation [2]: 55 ± 6* %

CC[C@H](C)[C@H](NC(=O)[C@H](Cc1ccc(O)cc1)NC(=O)C[C@@H]1NC(=O)CNC(=O)[C@@H]2C[C@@H](O)CN2C(=O)[C@H](CC(N)=O)NC(=O)[C@H](C(C)C)NC(=O)[C@@H]2C[C@@H](O)CN2C(=O)[C@H]([C@@H](C)O)NC(=O)[C@H](CCCCN)NC(=O)[C@H](CCC(=O)O)NC1=O)C(N)=O [cyclo[EKTOVNOGN]YI] (cyclo(EKT[Hyp]VN[Hyp]GD([Tyr-Ile-NH2])))
Inhibition ± S.E, % T47D cell proliferation [2]: 24 ± 3% | inhibition of E2-stimulated T47D human breast cancer cell growth, concentration response profile [4]: ineffective | inhibition of E2-stimulated uterine growth, dose response profile [5]: very little antiestrogenic activity

TOVNO (T[Hyp]VN[Hyp])
inhibition of E2-stimulated T47D human breast cancer cell growth, concentration response profile [4]: undesirable | inhibition of E2-stimulated uterine growth, dose response profile [5]: undesirable

TOVNOGNEK (T[Hyp]VN[Hyp]GNEK)
inhibition of MCF-7 xenograft growth (change in tumor volume) [3]: efficacy equivalent to AFPep | inhibition of E2-stimulated T47D human breast cancer cell growth, concentration response profile [4]: superior dose response profile | inhibition of E2-stimulated uterine growth, dose response profile [5]: superior dose response profile

cyclo[EKTOVGOGN]K (EKT[Hyp]VG[Hyp]GNK; bridge (positions not given here); not fully specified (bridges); printed as cyclo[EKTOVGOGN]K; also: cyclic ring with lysine tail, ring closure and tail attachment not given here)
Inhibition ± S.E, % Mouse uterine growth Intraperitoneal [5]: 7 ± 3%

cyclo[EKTOVNOGN]FS
Inhibition ± S.E, % Mouse uterine growth Intraperitoneal [5]: 7 ± 3%
